# Experimental data as given in patent publication US20020015937A1, “Methods for inactivating viruses” (priority 2000, published 2002).
# Tests used:
# Type in all cases: cell-based
# [1] = tested on: Feline rhinotrachetis virus; experiment: Inactivation of feline rhinotrachetis virus in human blood plasma by pressure and HMT with UV (plaque assay on feline cells Fc3Tg)
# Method: The infectivity of the virus suspension is determined by duplicate plaque assays on cultured feline cells, Fc3Tg (ATCC CCL 176) with a methylcellulose overlay. The sample is split into four aliquots and are treated as follows: 1) aliquot 1—no treatment; […] 4) aliquot 4—nothing added and pressurized to 30,000 psi for 10 minutes. All samples are held at a temperature of 25° C. throughout the experiment. After treatment, the plasma is serially diluted, mixed with cultured feline cells and plated on agar.
# [2] = tested on: Feline rhinotrachetis virus; experiment: Inactivation of feline rhinotrachetis virus in human blood plasma by pressure cycling and S-59 with UV (plaque assay on feline cells)
# SV 40 = experiment: Inactivation of SV 40 in human blood plasma by pressure cycling and DNase (plaque assay on primate cells)
# bacteriophage MS2 [3] = experiment: Inactivation of bacteriophage MS2 in human blood plasma by pressure cycling and 1-(2-aminoethyl)aziridine (plaque assay on E. coli)
# bacteriophage MS2 [4] = experiment: Inactivation of bacteriophage MS2 in human blood plasma by pressure and RNase (plaque assay on E. coli)
molecule,measurement,setting,value
"Cc1oc2c(C)c3oc(=O)cc(C)c3cc2c1CO [HMT, 4′-hydroxymethyl-4,5′,8-trimethylpsoralen]","reduction in viral titer, combination with pressure versus sum of the reductions of the single treatments","[1]; 20 μg/ml HMT, 30,000 psi for 10 minutes, then longwave UV light (320 to 380 nm) 10 minutes, 25° C., human blood plasma, 2×10^7 pfu per ml",significantly greater reduction in viral titer
same,viral inactivation under pressure at lower concentrations,"[1]; similar experiments with lower concentrations of HMT, with pressure",equivalent viral inactivation with lower concentrations
"Cc1oc2c(C)c3oc(=O)cc(C)c3cc2c1COCCN [S-59, 4′-(4-amino-2-oxa)butyl-4,5′,8-trimethylpsoralen]","reduction in viral titer, combination with pressure cycling versus sum of the reductions of the single treatments","[2]; 150 μM S-59, longwave UV light 10 minutes, 90,000 psi for 5 minutes, 24 cycles, then UV ten minutes, 25° C., human blood plasma, 2×10^7 pfu per ml",significantly greater reduction in viral titer
same,viral inactivation under pressure cycling at lower concentrations,"[2]; similar experiments with lower concentrations of S-59, with pressure cycling",equivalent viral inactivation with lower concentrations
DNase,"reduction in viral titer, combination with pressure cycling versus sum of the reductions of the single treatments","SV 40; 20 μg/ml DNase I, 90,000 psi for 10 minutes, 25 cycles, 37° C., human blood plasma, 10^8 pfu per ml SV 40",significantly greater reduction in viral titer
same,viral inactivation under pressure cycling at lower concentrations,"SV 40; similar experiments with lower concentrations of DNase, with pressure cycling",equivalent viral inactivation with lower concentrations of DNase or with shorter incubation time
NCCN1CC1 [1-(2-aminoethyl)aziridine],"reduction in viral titer, combination with pressure cycling versus sum of the reductions of the single treatments","bacteriophage MS2 [3]; 0.007 M 1-(2-aminoethyl)aziridine, 80,000 psi for 10 minutes, 20 cycles, 25° C., human blood plasma, 10^8 pfu per ml MS2",significantly greater reduction in viral titer
same,viral inactivation under pressure cycling at lower concentrations,"bacteriophage MS2 [3]; similar experiments with lower concentrations of 1-(2-aminoethyl)aziridine, with pressure cycling",equivalent viral inactivation with lower concentrations of 1-(2-aminoethyl)aziridine or with shorter incubation time
"RNase: ribonuclease, enzyme that hydrolyzes RNA; RNase A used at 10 μg/ml (protein, UniProt P61823 27-150, looked up) Ribonuclease pancreatic: KETAAAKFERQHMDSSTSAASSSNYCNQMMKSRNLTKDRCKPVNTFVHESLADVQAVCSQKNVACKNGQTNCYQSYSTMSITDCRETGSSKYPNCAYKTTQANKHIIVACEGNPYVPVHFDASV","reduction in viral titer, combination with pressure versus sum of the reductions of the single treatments","bacteriophage MS2 [4]; 10 μg/ml RNase A, 25,000 psi for 20 minutes, 37° C., human blood plasma, 10^8 pfu per ml MS2",significantly greater reduction in viral titer
same,viral inactivation under pressure at lower concentrations,"bacteriophage MS2 [4]; similar experiments with lower concentrations of RNase, with pressure",equivalent viral inactivation with lower concentrations of RNase or with shorter incubation time
